This is an account of results in US20100004283A1, “4-[(3-FLUOROPHENOXY)PHENYLMETHYL]PIPERIDINE METHANESULFONATE: USES, PROCESS OF SYNTHESIS AND PHARMACEUTICAL COMPOSITIONS” (priority 2006, published 2010).

Data set [1] in a line: Studies of stability under forced conditions. It counts as physicochemical. The method, then:
Additionally, the compound of formula I has shown excellent stability properties. The compound of formula I has remained stable for at least 6 months in studies of stability under forced conditions at 50 and 60° C., as well as at 40° C. and 75% humidity. This represents more than 2 years of stability under normal conditions.

The test system of the next data set is 5-HTP-induced syndrome. To be noted: mice, orally administered, acute; cited from earlier work.
In data set [2] the test system is immobility in the tail suspension test. To be noted: mice, orally administered, acute; cited from earlier work.

On to `CS(=O)(=O)O.Fc1cccc(OC(c2ccccc2)C2CCNCC2)c1` (stereo not drawn) [compound of formula I, 4-[(3-fluorophenoxy)phenylmethyl]piperidine methanesulfonic acid salt], for which the time remained stable entry in data set [1] (40° C. and 75% humidity) is “at least 6 months”; in data set [1] (forced conditions at 50° C.), “at least 6 months”; in data set [1] (forced conditions at 60° C.), “at least 6 months”. Also, the “stability under normal conditions” value in data set [1] (represented by the forced-condition results) is given as “more than 2 years”.

On to `Fc1cccc(O[C@H](c2ccccc2)C2CCNCC2)c1` [(S)-4-[(3-fluorophenoxy)phenylmethyl]piperidine], for which the “minimal effective dose (MED), potentiation of the 5-HTP-induced syndrome” value with 5-HTP-induced syndrome was 10 mg/kg. Also, the “MED, reduction of the immobility in the tail suspension test” value in data set [2] is 10 mg/kg.
